# Measured values published in patent CN113143900A, “Ml365在制备预防和/或治疗nlrp3炎症小体相关疾病的药物中的应用” (Southern Medical University, priority 2021, dated 2021).
# “Also recorded” adds a separate entry of the source.
# What was measured:
# [1] = target: T1, human TWIK2 channel, functional mutant muTWIK2 Y308A/I289A/L290A [人源TWIK2-Y308A/I289A/L290A, muTWIK2] (Homo sapiens, UniProt Q9Y257, I289A/L290A/Y308A); experiment: Whole-cell patch clamp of transfected COS-7 cells, TWIK2 (muTWIK2) current; format: cell-based
# T1 construct: GFP (green fluorescent protein label of the plasmid); expressed in transfected cells; host or cells: COS-7
# T1 sequence (Q9Y257 1-313 I289A/L290A/Y308A): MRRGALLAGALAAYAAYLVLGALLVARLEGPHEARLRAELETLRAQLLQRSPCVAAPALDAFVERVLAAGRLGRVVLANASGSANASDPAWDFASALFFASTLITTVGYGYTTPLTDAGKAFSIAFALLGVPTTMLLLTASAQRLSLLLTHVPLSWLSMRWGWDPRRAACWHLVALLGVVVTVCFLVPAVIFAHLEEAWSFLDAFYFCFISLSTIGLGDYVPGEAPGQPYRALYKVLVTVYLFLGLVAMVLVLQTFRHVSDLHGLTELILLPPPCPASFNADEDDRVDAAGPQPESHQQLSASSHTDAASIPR
# [2] = target: T2, human TWIK1 channel, functional mutant muTWIK1 I293/294A/K274E [人源TWIK1-I293/294A/K274E, muTWIK1] (Homo sapiens, UniProt O00180, I293A/I294A/K274E); experiment: Whole-cell patch clamp of transfected COS-7 cells, TWIK1 (muTWIK1) current; format: cell-based
# T2 construct: GFP (green fluorescent protein label of the plasmid); expressed in transfected cells; host or cells: COS-7
# T2 sequence (O00180 1-336 K274E/I293A/I294A): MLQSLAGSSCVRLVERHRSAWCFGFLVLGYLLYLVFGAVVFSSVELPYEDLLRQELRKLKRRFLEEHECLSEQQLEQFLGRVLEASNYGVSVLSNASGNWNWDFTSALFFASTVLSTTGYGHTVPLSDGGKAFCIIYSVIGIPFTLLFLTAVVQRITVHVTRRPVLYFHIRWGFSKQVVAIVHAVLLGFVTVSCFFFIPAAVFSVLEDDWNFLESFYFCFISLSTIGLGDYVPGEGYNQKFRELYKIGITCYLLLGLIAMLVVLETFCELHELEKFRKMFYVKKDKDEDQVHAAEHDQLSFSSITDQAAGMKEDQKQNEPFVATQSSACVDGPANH
# [3] = target: T3, human THIK1 channel [人源THIK1, THIK1通道] (Homo sapiens, UniProt Q9HB14); experiment: Whole-cell patch clamp of transfected COS-7 cells, THIK1 current; format: cell-based
# T3 construct: GFP (green fluorescent protein label of the plasmid); expressed in transfected cells; host or cells: COS-7
# T3 sequence (Q9HB14 1-408): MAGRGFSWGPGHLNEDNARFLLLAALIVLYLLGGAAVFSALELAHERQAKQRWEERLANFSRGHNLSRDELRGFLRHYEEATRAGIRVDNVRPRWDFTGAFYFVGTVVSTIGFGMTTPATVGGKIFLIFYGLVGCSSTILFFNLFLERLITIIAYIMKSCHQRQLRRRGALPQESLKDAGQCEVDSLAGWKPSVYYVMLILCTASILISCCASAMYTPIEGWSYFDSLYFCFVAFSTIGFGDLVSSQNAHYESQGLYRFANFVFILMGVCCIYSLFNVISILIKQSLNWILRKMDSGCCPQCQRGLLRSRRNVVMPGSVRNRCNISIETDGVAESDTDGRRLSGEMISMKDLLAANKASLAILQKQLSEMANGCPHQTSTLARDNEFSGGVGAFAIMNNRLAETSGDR
# [4] = test system: NLRP3 inflammasome [NLRP3炎症小体]; experiment: ATP-induced NLRP3 inflammasome activation in LPS-primed BMDM, Western blot (WB); format: cell-based, mouse
# [5] = test system: NLRP3 inflammasome [NLRP3炎症小体]; experiment: ATP-induced IL-1β release from LPS-primed BMDM, ELISA; format: cell-based, mouse
# TNF-α = TNF-α in supernatants of LPS + ATP treated BMDM, ELISA; format: cell-based, mouse; details: same supernatants
# [6] = test system: NLRP3 inflammasome [NLRP3炎症小体]; experiment: Nigericin-induced NLRP3 inflammasome activation in LPS-primed BMDM (WB, ELISA); format: cell-based, mouse
# [7] = test system: NLRP3 inflammasome [NLRP3炎症小体]; experiment: ATP- or Nigericin-induced NLRP3 inflammasome activation in human THP-1 macrophages; format: cell-based
# [8] = test system: non-canonical inflammasome [非经典炎症小体]; experiment: Non-canonical inflammasome activation (Pam3CSK4 + transfected LPS), IL-1β ELISA; format: cell-based, mouse; details: ML365 5 μM (Fig. 9)
# [9] = test system: AIM2 inflammasome [AIM2炎症小体]; experiment: AIM2 inflammasome activation (LPS + poly(dA:dT)), IL-1β ELISA; format: cell-based, mouse; details: ML365 5 μM (Fig. 9)
# [10] = test system: NLRC4 inflammasome [NLRC4炎症小体]; experiment: NLRC4 inflammasome activation (Pam3CSK4 + Flagellin), IL-1β ELISA; format: cell-based, mouse; details: ML365 5 μM (Fig. 9)
# [11] = test system: NLRP3 inflammasome [NLRP3炎症小体]; experiment: ATP-induced NLRP3 inflammasome activation in BMDM after siRNA knockdown of TWIK2 (WB, ELISA); format: cell-based, mouse; details: ML365 5 μM (Fig. 11), TWIK2 siRNA 50 nM 48 h, LPS + ATP
# [12] = test system: NLRP3 inflammasome [NLRP3炎症小体]; details: mouse BMDM; pharmacological inhibition (or knockout) of TWIK2; Di et al. 2018; cited from earlier work
structure (smiles),measurement,setting,value
"COc1ccccc1C(=O)Nc1cccc(NC(=O)c2cccc(C)c2)c1 [ML365, 2-甲氧基-N-[3-[(3-甲基苯甲酰基)氨基]苯基]苯甲酰胺]",inhibition of TWIK2 channel (in words),"[1]; 10 μM in Fig. 3, muTWIK2 in COS-7 cells",特异性强效抑制剂; also recorded: 强效抑制剂; also recorded: 较强的抑制作用
same,I/I0 (inhibition of TWIK2 channel),"[1]; ML365 10 μM, muTWIK2 in COS-7 cells",0.35±0.02
same,activity at 10 µM,"[1]; ML365 10 μM, muTWIK2 in COS-7 cells, read-out: I/I0 (inhibition of TWIK2 channel)",35 ± 2%
same,selectivity for TWIK2 channel (in words),[1]; compared with TWIK1 and THIK1,特异性选择抑制剂; also recorded: 强效选择性抑制剂; also recorded: 选择性抑制剂
same,IC50,"[1]; inhibition of TWIK2 channel, dose-response curve on muTWIK2, COS-7 cells",4.07 µM
same,inhibition of muTWIK1 channel (in words),[2]; 10 μM,没有抑制作用
same,inhibition of muTWIK1 channel (in words),[2]; 20 μM,也无抑制作用
same,effect on TWIK1 channel function (in words),[2]; concentration not stated,不影响
same,inhibition of THIK1 channel (in words),[3]; 10 μM,几乎无抑制作用
same,inhibition of THIK1 channel (in words),[3]; 20 μM,也无抑制作用
same,effect on THIK1 channel function (in words),[3]; concentration not stated,不影响
same,effect on ATP-induced NLRP3 inflammasome activation (in words),"[4]; LPS 5 μg/mL overnight, compound 2 h, ATP 5 mM 1 h",阻断 and 剂量依赖性地抑制 and 可以特异性抑制 and 可特异性地抑制 and 可特异性抑制
same,expression level of caspase-1 in cell supernatant (in words),"[4]; WB, LPS + ATP",有所降低
same,expression level of mature IL-1β in cell supernatant (in words),"[4]; WB, LPS + ATP",有所降低
same,IL-1β release (in words),[5],显著降低
same,TNF-α expression (in words),TNF-α,几乎无影响
same,effect on Nigericin-induced NLRP3 inflammasome activation (in words),"[6]; BMDM, even at 10 and 20 μM, Nigericin 10 μM 30 min",没有影响
same,effect on Nigericin-induced NLRP3 inflammasome activation (in words),[6]; concentration not stated,无影响
same,effect on ATP-induced NLRP3 inflammasome activation (in words),[7]; ATP,也在人THP-1巨噬细胞中得到证实 and 抑制
same,effect on Nigericin-induced NLRP3 inflammasome activation (in words),[7]; Nigericin,也在人THP-1巨噬细胞中得到证实 and 无影响
same,effect on non-canonical inflammasome activation (in words),[8],不抑制 and 无影响
same,effect on AIM2 inflammasome activation / induced IL-1β production (in words),[9],不抑制 and 无影响
same,effect on NLRC4 inflammasome activation / induced IL-1β production (in words),[10],不抑制 and 无影响
same,inhibition of ATP-induced NLRP3 inflammasome activation by ML365 after TWIK2 knockdown (in words),[11],可阻断 and 极大减弱 and 显著下降 and 可消除
C=C[C@H]1CN2CC[C@H]1C[C@H]2[C@H](O)c1ccnc2ccc(OC)cc12 [奎宁],ASC oligomerisation (in words),[12],抑制caspase-1的激活、ATP诱发的IL-1β的释放以及凋亡相关斑点形成蛋白ASC的寡聚化
same,ATP-evoked IL-1β release (in words),[12],抑制caspase-1的激活、ATP诱发的IL-1β的释放
same,caspase-1 activation (in words),[12],抑制caspase-1的激活
same,effect on NLRP3 inflammasome activation (in words),[12],可以抑制BMDM细胞中NLRP3炎症小体的激活
